Source: PMC7247683, “Molecular Drug Discovery of Single Ginsenoside Compounds as a Potent Bruton’s Tyrosine Kinase Inhibitor” (International Journal of Molecular Sciences, 2020)
Where two headings read alike, the source gives them in different places.

Assays:
BTK [1] = biological target: T1, BTK (Homo sapiens, UniProt Q06187); assay: Western blotting, p-BTK/BTK in Ramos cells; format: cell-based; details: α-IgM stimulated, stimulation (α-IgM antibody (+), DMSO) group as reference (100%)
T1 construct: host or cells: Ramos cells
Experimental: The Ramos cells (~3 × 10^6) were famished of serum for 1 h and treated with ginsenosides for 1 h, and then washed with phosphate-buffered saline (Welgene, Korea), followed by stimulation with 1 μg/mL of goat F(ab’)2 anti-human IgM (Southern Biotech, Birmingham, AL, USA) for 10 min on ice. The cells were then lysed in a radioimmunoprecipitation assay (RIPA) buffer (Sigma-Aldrich, St. Louis, MO, USA) and the proteins were separated by SDS-PAGE (Bio-Rad Laboratories, Hercules, CA, USA) and transferred to polyvinylidene fluoride membranes (EMD Millipore, Billerica, MA, USA). The proteins were detected with anti-BTK Y223 (Cell Signaling Technology, Danvers, MA, USA), anti-BTK (53/BTK, Cell Signaling Technology) and anti-glyceraldehyde 3-phosphate dehydrogenase (anti-GAPDH) (Santa Cruz Biotechnology, Santa Cruz, CA, USA) antibodies. The protein signals were monitored by chemiluminescence using Enhanced ChemiLuminescence (ECL) western blotting detection reagent (EMD Millipore), and the scanned blots were quantified using a Multi-Image analyzer (Fujifilm, Japan). The phosphorylation % of each lane was determined using Multi-Gauge software (Fujifilm). The IC50 value was measured using control α-IgM+ set at 100% and control α-IgM− set at 0%.
The Ramos cells (~3 × 10^6) were cultured in 6-well cell culture plates. Both the control and ginsenoside compounds were dissolved in DMSO. For the Western blotting, the α-IgM- groups and α-IgM+ groups in the presence of DMSO were used as the non-stimulation control and stimulation control, respectively, following by the quantitation of the expression ratio of p-BTK, BTK, and β-tubulin. The expression level of each p-BTK and the expression level of BTK were compared and analyzed using the ratios (p-BTK/β-tubulin and BTK/β-tubulin) based on the expression level of each β-tubulin. Namely, the p-BTK/BTK ratio means the (p-BTK/β-tubulin)/(BTK/β-tubulin) ratio, which is simply expressed as p-BTK/BTK.

purified BTK = purified BTK (Homo sapiens, UniProt Q06187); assay: FRET-based kinase assay (Z'-LYTE) for BTK inhibition; format: biochemical; details: 0.625 μg/mL purified BTK; for BTK inhibitory effect (inhibition %): 25, 50, and 100 μg/mL, depending on the concentration; for IC50: FRET assay
Experimental: For the identification of the BTK inhibitory activity of ginsenoside-derived candidate substances and the screening of them to show pharmacological efficacy, the BTK-inhibitory activity of ginsenoside compounds and their in vitro BTK inhibitory activity was measured as the inhibition rate (inhibition %) of the decreased phosphorylation rate compared to the BTK activity without ginsenoside treatment in a FRET assay.
In order to evaluate the BTK inhibitory activity of the ginsenoside compound, a kinase assay using a Z’-LYTE Kinase Assay Kit from Thermo Fisher Scientific was performed. A fluorescent microplate reader was used to measure the Fluorescence Resonance Energy Transfer (FRET) between coumarin and fluorescein dyes. The assay was optimized for BTK, as described in the manufacturer’s protocol. The BTK activity (%) was evaluated by measuring the ratio of the emission signal (445 nm/520 nm) according to the phosphorylation % of the substrate by BTK.

[2] = Solubility characterization in RPMI medium (absorbance at 540 nm, transparency); format: physicochemical; set-up: key to absorbance at 540 nm increased compared to the control / absorbance at 540 nm decreased compared to the control / absorbance at 540 nm reduced compared to the control: difference in OD at 540 nm vs untreated medium control
Text: In spite of the promising pharmaceutical efficacies of the ginsenoside compounds, the therapeutic potential of ginsenosides is largely restricted by their lowering bioavailability when orally distributed (< 5%) due to their undesirable physicochemical properties, such as low water solubility, low biomembrane permeability, instability in the gastrointestinal fluid, and extensive body metabolism. Depending on the solubility of each candidate substance, the black text under the plate is clearly visible when dissolved well. Since UV/vis absorbance spectra-based turbidimetry has the advantage of being fast and non-destructive in common drug solubility tests, a determination of their turbidity or optical density (OD) in liquid cultures was employed to monitor the water-solubility of the ginsenoside candidates. The λmax of the UV/vis absorbance spectra of the ginsenoside compounds and their Roswell Park Memorial Institute (RPMI) medium were identical at 540 nm, and the difference in OD between the absorbances of the ginsenosides and the media, used only as a control, was plotted (Figure 4). The increased absorbance signals of the PPT and PPD were derived from the increased OD signal of turbidity-based interference by insoluble compounds in the medium. The corresponding UV/vis absorbance results of each candidate substance in the media is discussed as follows:
To determine the concentration of ginsenoside compounds to be treated on the cells, the solubility of each compound in RPMI-1640 medium was evaluated. Specifically, the solubility of each ginsenoside compound was observed by UV/vis absorbance at 540 nm, and the transparency of the medium was measured by the visually observed degree to which the marked black text at the bottom of the plate was visible (transparency of the medium). In addition, the change in absorbance at 540 nm compared to the control was measured by using the medium not treated with the ginsenoside compound as a control.

BTK [3] = biological target: T1, BTK; assay: Cell-based phosphorylation ELISA, p-BTK/BTK in Ramos cells; details: for BTK inhibitory activity (p-BTK/BTK, ELISA), in words: compared to Ibrutinib or the DMSO-treated group
Text: Although BTK is almost constant in cells, the expression level of p-BTK varies depending on the degree of BTK activation and inhibition, and thus the expression level of p-BTK is based on the expression of BTK (p-BTK/BTK).
When BTK is activated or inhibited, the phosphorylation % of BTK is increased or decreased accordingly, which can be confirmed by the amount of phosphorylated BTK in the cell. After treating the ginsenoside compound on the cells, the amount of BTK inhibition of the ginsenoside compound was compared and analyzed by the amount of phosphorylated BTK in the cell. […] The BTK to GAPDH expression ratio was confirmed.
The Ramos cells (~1 × 10^4) were cultured in 96-well cell culture plates. […] Free DMSO was used as a negative control group. […] The expression level of each p-BTK and the expression level of BTK were compared and analyzed using the ratios (p-BTK/GAPDH and BTK/GAPDH) based on the expression level of each […]. Namely, the p-BTK/BTK ratio means the (p-BTK/GAPDH)/(BTK/GAPDH) ratio, which is simply expressed as p-BTK/BTK.

[4] = read-out: IC50 levels that inhibited BTK activity
[5] = solubility-dependent concentration

Sequence of purified BTK (Q06187 whole entry): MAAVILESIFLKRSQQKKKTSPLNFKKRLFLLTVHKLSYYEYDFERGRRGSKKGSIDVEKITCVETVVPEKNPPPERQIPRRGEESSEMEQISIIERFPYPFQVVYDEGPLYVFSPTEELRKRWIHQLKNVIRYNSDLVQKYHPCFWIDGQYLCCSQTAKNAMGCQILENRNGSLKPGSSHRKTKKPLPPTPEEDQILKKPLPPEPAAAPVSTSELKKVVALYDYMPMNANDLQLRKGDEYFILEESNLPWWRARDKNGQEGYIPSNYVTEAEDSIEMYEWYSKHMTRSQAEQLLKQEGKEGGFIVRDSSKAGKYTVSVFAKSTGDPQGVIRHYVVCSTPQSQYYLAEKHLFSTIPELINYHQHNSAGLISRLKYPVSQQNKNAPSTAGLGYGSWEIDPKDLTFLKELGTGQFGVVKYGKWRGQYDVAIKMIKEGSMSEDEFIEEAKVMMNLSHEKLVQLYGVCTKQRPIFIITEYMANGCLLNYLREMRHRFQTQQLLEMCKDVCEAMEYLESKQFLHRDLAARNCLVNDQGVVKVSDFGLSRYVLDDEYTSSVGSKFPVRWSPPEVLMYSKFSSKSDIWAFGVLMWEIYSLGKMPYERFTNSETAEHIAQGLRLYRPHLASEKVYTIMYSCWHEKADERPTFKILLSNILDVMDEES
T1 sequence (Q06187 whole entry): as above

SMILES | BTK inhibitory activity (p-BTK/BTK, Western blotting) (BTK [1]) | BTK inhibitory effect (inhibition %) (purified BTK) [%] | IC50 (purified BTK; [4]) [µM] | solubility in the medium, overall ([2]; RPMI medium) | BTK inhibitory activity (p-BTK/BTK, ELISA) (BTK [3]; [5]) [%] | BTK inhibitory activity (p-BTK/BTK, ELISA), in words (BTK [3]; [5]) | appearance / solubility in the medium [2] | solubility in the medium, overall [2] | absorbance at 540 nm increased compared to the control ([2]; 0.5 mM) | BTK inhibitory activity (p-BTK/BTK, ELISA) (BTK [3]; at low concentrations) [%] | also measured
CC(C)=CCCC(C)(OC1OC(COC2OCC(O)C(O)C2O)C(O)C(O)C1O)C1CCC2(C)C1C(O)CC1C3(C)CCC(OC4OC(CO)C(O)C(O)C4OC4OC(CO)C(O)C(O)C4O)C(C)(C)C3CCC12C (stereo not drawn) [Rb2] | ~ 17% | ≥ 70 | 9.27 | soluble in the medium at a high concentration | > 23 | substantial BTK inhibitory activity |  |  |  |  | absorbance at 540 nm increased compared to the control ([2]; 0.2 mM in RPMI medium): 0.042; appearance / solubility in the medium ([2]; 0.2 mM in RPMI medium): transparent; absorbance at 540 nm decreased compared to the control ([2]; 0.6 mM in RPMI medium): 0.007; absorbance at 540 nm decreased compared to the control ([2]; 1.0 mM in RPMI medium): 0.006
CC(C)=CCC[C@](C)(O)[C@H]1CC[C@]2(C)[C@@H]1[C@H](O)C[C@@H]1[C@@]3(C)CC[C@H](O)C(C)(C)[C@@H]3[C@@H](O)C[C@]12C [PPT, protopanaxatriol] | about 30% | ≥ 70 | 136 |  |  | substantial BTK inhibitory activity | intensively turbid | poorly soluble in the medium at higher concentrations | 0.309 | 15.98 | absorbance at 540 nm increased compared to the control ([2]; 0.8 mM): 0.508; absorbance at 540 nm increased compared to the control ([2]; 1.7 mM): 1.118
CC(C)=CCCC(C)(O)C1CCC2(C)C1C(O)CC1C3(C)CCC(O)C(C)(C)C3CCC12C (stereo not drawn) [PPD, protopanaxadiol] | about 40% |  |  |  |  | substantial BTK inhibitory activity | turbid | poorly soluble in the medium at higher concentrations | 0.442 | 9.58 | absorbance at 540 nm increased compared to the control ([2]; 0.2 mM): 0.155; absorbance at 540 nm increased compared to the control ([2]; 1 mM): 0.835; absorbance at 540 nm increased compared to the control ([2]; 1.5 mM): 1.153
CC(C)=CCCC(C)(O)C1CCC2(C)C1C(O)CC1C3(C)CCC(OC4OC(CO)C(O)C(O)C4O)C(C)(C)C3CCC12C (stereo not drawn) [Rh2] |  | ≥ 70 |  | soluble in the medium at a low concentration, while insoluble at a high concentration |  |  |  |  |  |  | IC50 (purified BTK; IC50 levels that inhibited BTK activity): 61.1 µM; absorbance at 540 nm increased compared to the control ([2]; 0.4 mM in RPMI medium): 0.037; absorbance at 540 nm increased compared to the control ([2]; 0.6 mM in RPMI medium): 0.111; absorbance at 540 nm increased compared to the control ([2]; 1.2 mM in RPMI medium): 0.271; appearance / solubility in the medium ([2]; 1.2 mM in RPMI medium): slightly soluble
CC(C)=CCCC(C)(OC1OC(COC2OCC(O)C(O)C2O)C(O)C(O)C1O)C1CCC2(C)C1C(O)CC1C3(C)CCC(OC4OC(CO)C(O)C(O)C4OC4OC(CO)C(O)C(O)C4O)C(C)(C)C3CCC12C (stereo not drawn) [Rb3] | ~ 17% | ≥ 70 | 51 | soluble in the medium at a high concentration | > 23 | substantial BTK inhibitory activity |  |  |  |  | absorbance at 540 nm increased compared to the control ([2]; 0.9 mM in RPMI medium): 0.047; appearance / solubility in the medium ([2]; 0.9 mM in RPMI medium): transparent; absorbance at 540 nm reduced compared to the control ([2]; 2.7 mM in RPMI medium): 0.004
